Source: PubChem BioAssay AID256 (DTP/NCI, 2004)
Where “and” joins values, the source holds several entries; their conditions need not be identical. Equal entries are not always repeated. Inconclusive results and toxic doses are left out. Rule for the calls: active = survival T/C of 150% or more; inactive = T/C below 125% in these data.

Tested on: CD2F1 mice, L1210 leukemia ip, survival T/C
Assay: NCI In Vivo Anticancer Drug Screen. Data for tumor model L1210 Leukemia (intraperitoneal) in CD2F1 (CDF1) mice
Conditions: higher = longer survival
In short: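 Implant tumor; dose compound or vehicle; measure endpoint in both groups; report treated divided by control.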

[1] = endpoint: mean survival time, dose: 50.0 mg/kg/injection, schedule: Q04DX003 (ip), vehicle: other
[2] = endpoint: mean survival time, dose: 100.0 mg/kg/injection, schedule: Q04DX003 (ip), vehicle: other
[3] = endpoint: mean survival time, dose: 200.0 mg/kg/injection, schedule: Q04DX003 (ip), vehicle: other
[4] = endpoint: mean survival time, dose: 400.0 mg/kg/injection, schedule: Q04DX003 (ip), vehicle: other
[5] = endpoint: mean survival time, dose: 100.0 mg/kg/injection, schedule: Q01DX009 (ip), vehicle: saline with Tween-80
[6] = endpoint: mean survival time, dose: 200.0 mg/kg/injection, schedule: Q01DX009 (ip), vehicle: saline with Tween-80
[7] = endpoint: mean survival time, dose: 400.0 mg/kg/injection, schedule: Q01DX009 (ip), vehicle: saline with Tween-80
[8] = endpoint: mean survival time, dose: 25.0 mg/kg/injection, schedule: Q04DX003 (ip), vehicle: saline with Tween-80
[9] = endpoint: mean survival time, dose: 50.0 mg/kg/injection, schedule: Q04DX003 (ip), vehicle: saline with Tween-80
[10] = endpoint: mean survival time, dose: 100.0 mg/kg/injection, schedule: Q04DX003 (ip), vehicle: saline with Tween-80
[11] = endpoint: mean survival time, dose: 200.0 mg/kg/injection, schedule: Q04DX003 (ip), vehicle: saline with Tween-80
[12] = endpoint: mean survival time, dose: 400.0 mg/kg/injection, schedule: Q04DX003 (ip), vehicle: saline with Tween-80
[13] = endpoint: mean survival time, dose: 100.0 mg/kg/injection, schedule: Q04DX002 (ip), vehicle: saline with Tween-80
[14] = endpoint: mean survival time, dose: 200.0 mg/kg/injection, schedule: Q04DX002 (ip), vehicle: saline with Tween-80
[15] = endpoint: mean survival time, dose: 100.0 mg/kg/injection, schedule: Q01DX001 (ip), vehicle: saline
[16] = endpoint: mean survival time, dose: 200.0 mg/kg/injection, schedule: Q01DX001 (ip), vehicle: saline
[17] = endpoint: mean survival time, dose: 100.0 mg/kg/injection, schedule: Q01DX001 (ip), vehicle: saline with Tween-80
[18] = endpoint: mean survival time, dose: 200.0 mg/kg/injection, schedule: Q01DX001 (ip), vehicle: saline with Tween-80
[19] = endpoint: mean survival time, dose: 400.0 mg/kg/injection, schedule: Q01DX001 (ip), vehicle: saline with Tween-80
[20] = endpoint: mean survival time, dose: 400.0 mg/kg/injection, schedule: Q01DX001 (ip), vehicle: saline
[21] = endpoint: mean survival time, dose: 50.0 mg/kg/injection, schedule: Q04DX003 (ip), vehicle: Klucel (hydroxypropylcellulose) (HPC)

Measured: T/C

Nc1ncc2ccccc2c1-c1ccc(NC(=O)CN(CCCl)CCCl)cc1
inactive: endpoint: mean survival time, dose: 25.0 mg/kg/injection, schedule: Q04DX003 (ip), vehicle: other 106 % of control | [1] 106 % of control | [2] 103 % of control | [3] 109 % of control | [4] 112 % of control

COC1OC(C(COC(C)=O)OC(C)=O)C(OC(C)=O)C(OC(C)=O)C1OC(C)=O (centres undefined)
inactive: [5] 95 % of control | [6] 102 % of control | [7] 104 % of control

CCCCCCCCCCCCS
inactive: [8] 101 % of control | [9] 97 % of control | [10] 100 % of control and 108 % of control | [11] 91 % of control | [12] 91 % of control

Cc1ccc(S(=O)(=O)N(C)c2cc([N+](=O)[O-])ccc2Br)cc1
inactive: [13] 95 % of control | [14] 103 % of control | endpoint: mean survival time, dose: 400.0 mg/kg/injection, schedule: Q04DX002 (ip), vehicle: saline with Tween-80 114 % of control

CCOC(=O)Nc1cc(NCCCCc2ccccc2)c2[nH]cnc2n1
inactive: endpoint: mean survival time, dose: 100.0 mg/kg/injection, schedule: Q01DX001 (ip), vehicle: Klucel (hydroxypropylcellulose) (HPC) 95 % of control | endpoint: mean survival time, dose: 200.0 mg/kg/injection, schedule: Q01DX001 (ip), vehicle: Klucel (hydroxypropylcellulose) (HPC) 93 % of control | endpoint: mean survival time, dose: 400.0 mg/kg/injection, schedule: Q01DX001 (ip), vehicle: Klucel (hydroxypropylcellulose) (HPC) 102 % of control

ClCCc1cnc[nH]1
inactive: endpoint: mean survival time, dose: 25.0 mg/kg/injection, schedule: Q01DX005 (ip), vehicle: water 104 % of control | endpoint: mean survival time, dose: 50.0 mg/kg/injection, schedule: Q01DX005 (ip), vehicle: water 101 % of control | endpoint: mean survival time, dose: 100.0 mg/kg/injection, schedule: Q01DX005 (ip), vehicle: water 105 % of control

CC(=O)COc1ccc(C)cc1
inactive: [10] 105 % of control | [11] 96 % of control | [12] 98 % of control

Nc1cccc[n+]1CC(O)C(=O)[O-] (centres undefined)
inactive: endpoint: mean survival time, dose: 50.0 mg/kg/injection, schedule: Q01DX001 (ip), vehicle: saline 107 % of control | [15] 98 % of control | [16] 101 % of control

CC(=O)O/N=C(\C(c1ccccc1)c1ccccc1)C1c2ccccc2-c2ccccc21
inactive: [17] 87 % of control | [18] 87 % of control | [19] 90 % of control

[Co].[NH-]CC[NH-].[NH-]CC[NH-].[NH-]CC[NH-]
inactive: endpoint: mean survival time, dose: 25.0 mg/kg/injection, schedule: Q01DX009 (ip), vehicle: saline with Tween-80 93 % of control | endpoint: mean survival time, dose: 50.0 mg/kg/injection, schedule: Q01DX009 (ip), vehicle: saline with Tween-80 101 % of control | [5] 110 % of control | endpoint: mean survival time, dose: 100.0 mg/kg/injection, schedule: Q04DX003 (ip), vehicle: saline sonified 104 % of control

O=C(O)CCCCSc1ncnc2nc[nH]c12
inactive: [5] 90 % of control | [6] 95 % of control | [7] 102 % of control

CS(=O)(=O)C([N+](=O)[O-])S(C)(=O)=O
inactive: [15] 101 % of control | [16] 101 % of control | [20] 97 % of control

Cc1nc(N)[nH]c(=O)c1CCCNS(=O)(=O)c1ccc(CN)cc1
inactive: [15] 110 % of control | [16] 101 % of control | [20] 100 % of control

CC(C)([NH-])C[NH-].[Cl][Pt+2][Cl]
inactive: endpoint: median survival time, dose: 10.0 mg/kg/injection, schedule: Q04DX003 (ip), vehicle: saline with Tween-80 98 % of control | endpoint: median survival time, dose: 20.0 mg/kg/injection, schedule: Q04DX003 (ip), vehicle: saline with Tween-80 95 % of control | endpoint: median survival time, dose: 40.0 mg/kg/injection, schedule: Q04DX003 (ip), vehicle: saline with Tween-80 102 % of control | endpoint: median survival time, dose: 80.0 mg/kg/injection, schedule: Q04DX003 (ip), vehicle: saline with Tween-80 103 % of control and 112 % of control | endpoint: median survival time, dose: 160.0 mg/kg/injection, schedule: Q04DX003 (ip), vehicle: saline with Tween-80 117 % of control

O=C(O)CCc1c[nH]c2ccccc12
inactive: [10] 98 % of control | [11] 102 % of control | [12] 108 % of control

CN(CCS(=O)(=O)O)/N=C/c1ccc2c(c1)OCO2
inactive: endpoint: mean survival time, dose: 25.0 mg/kg/injection, schedule: Q04DX003 (ip), vehicle: acetone 97 % of control | endpoint: mean survival time, dose: 50.0 mg/kg/injection, schedule: Q04DX003 (ip), vehicle: acetone 103 % of control | endpoint: mean survival time, dose: 100.0 mg/kg/injection, schedule: Q04DX003 (ip), vehicle: acetone 98 % of control

COc1ccc(/C=C/C(CC(NO)c2ccc(OC)cc2)=N/O)cc1 (centres undefined)
inactive: endpoint: mean survival time, dose: 12.5 mg/kg/injection, schedule: Q04DX003 (ip), vehicle: saline with Tween-80 101 % of control | endpoint: mean survival time, dose: 25.0 mg/kg/injection, schedule: Q01DX001 (ip), vehicle: saline with Tween-80 103 % of control | [8] 101 % of control | endpoint: mean survival time, dose: 50.0 mg/kg/injection, schedule: Q01DX001 (ip), vehicle: saline with Tween-80 104 % of control | [9] 102 % of control | [10] 95 % of control | [18] 97 % of control | [11] 98 % of control

Cn1c(=S)sc2ccccc21
inactive: endpoint: mean survival time, dose: 25.0 mg/kg/injection, schedule: Q04DX003 (ip), vehicle: Klucel (hydroxypropylcellulose) (HPC) 101 % of control | [21] 109 % of control | [10] 110 % of control

O=C=NC(c1ccccc1)(c1ccccc1)c1ccccc1
inactive: [10] 95 % of control and 99 % of control | [11] 103 % of control and 104 % of control | [12] 97 % of control

Cn1c(=O)cc(C=Nc2ccc(O)cc2)c2ccccc21
inactive: [5] 94 % of control | [6] 90 % of control | [7] 97 % of control

Cc1cnc(Cl)c(Br)c1
inactive: [17] 96 % of control | [5] 104 % of control | [18] 101 % of control | [6] 100 % of control | [19] 95 % of control | [7] 106 % of control

CNC(=O)Nc1nc2ccccc2[nH]1
inactive: [21] 101 % of control | endpoint: mean survival time, dose: 100.0 mg/kg/injection, schedule: Q04DX003 (ip), vehicle: Klucel (hydroxypropylcellulose) (HPC) 102 % of control | endpoint: mean survival time, dose: 200.0 mg/kg/injection, schedule: Q04DX003 (ip), vehicle: Klucel (hydroxypropylcellulose) (HPC) 104 % of control | endpoint: mean survival time, dose: 400.0 mg/kg/injection, schedule: Q04DX003 (ip), vehicle: Klucel (hydroxypropylcellulose) (HPC) 102 % of control

CN(C)CCC(=O)c1cccc(O)c1
inactive: [13] 104 % of control | [14] 101 % of control

O=C(Nc1cccc(S(=O)(=O)F)c1)c1cccc([N+](=O)[O-])c1
inactive: [10] 105 % of control | [11] 102 % of control | [12] 96 % of control

O=[N+]([O-])c1ccc(OCCBr)cc1
inactive: endpoint: mean survival time, dose: 100.0 mg/kg/injection, schedule: Q01DX009 (ip), vehicle: other 91 % of control | endpoint: mean survival time, dose: 200.0 mg/kg/injection, schedule: Q01DX009 (ip), vehicle: other 98 % of control | endpoint: mean survival time, dose: 400.0 mg/kg/injection, schedule: Q01DX009 (ip), vehicle: other 94 % of control

Cc1ccc(S(=O)(=O)OC2CCCCCCCCCCC2=O)cc1 (centres undefined)
inactive: [1] 97 % of control | [2] 93 % of control and 95 % of control | [3] 93 % of control | [4] 95 % of control
